Experiments:
[1] = system: NF-κB; assay: NF-κB cell-based reporter system
Procedure: To determine if atovaquone inhibits STAT3, it was tested in a cell-based reporter system of STAT3 transcriptional activity (Nelson E A, et al. (2008) Nifuroxazide inhibits survival of multiple myeloma cells by directly inhibiting STAT3. Blood 112(13):5095-5102). These cells lack basal STAT3 activation; upon IL-6 treatment, STAT3 becomes activated and drives transcription of a STAT3-dependent luciferase reporter gene. The STAT3-luc reporter cells were pre-treated with drug for 1 hour, then stimulated with IL-6 (10 ng/ml) for 5 hr. Activity of firefly luciferase was measured and normalized by cell viability (Cell Titer Glo). […] To determine if atovaquone inhibits STAT3 activity specifically over other transcription factors, it was tested in cell-based reporter systems for STAT1 and STAT5, two other STAT family members, and NF-κB, an unrelated transcription factor.

[2] = system: JAK family members (TYK2, JAK2); assay: JAK auto-phosphorylation in cells (immunoprecipitation, Western blot); format: cell-based; settings: U266 15 μM 1 hour (TYK2); HEL 20 μM 6 hours (JAK2)
Procedure: Western blotting was performed as previously described (Battle T E, Arbiser J, & Frank D A (2005) The natural product honokiol induces caspase dependent apoptosis in B-cell chronic lymphocytic leukemia (B-CLL) cells. Blood 106(2):690-697). Antibodies to phospho-MAPK (9101), total MAPK (9102), phospho-Y705 STAT3 (9131), phospho-S6 (2215), total S6 (2217), phospho-4E-BP1 (9451), total 4E-BP1 (9644), total RSK (9355), phospho-S6K (9234, 85 used at 1:5000), total S6K (2708), phospho-eIF2α (9721, used at 1:1000), total eIF2α (5324), ATF4 (11815, used at 1:1000), PDGFRβ (3169), IGF1Rβ (9750), EGFR (2232), and HER2 (2242) were from Cell Signaling Technology. Phospho-RSK antibody was from R&D (AF889). Antibodies to total STAT3 (sc-482) and gp130 (sc-656, used at 1:1000) were from Santa Cruz Biotechnology. […] Cell viability was measured as ATP-dependent luminescence by Cell Titer Glo (Promega).
To understand how atovaquone inhibits STAT3 phosphorylation, the possibility that atovaquone decreases the kinase activity of JAKs, which are responsible for STAT3 activation in the systems previously tested was considered. To assess kinase activity, the extent of kinase auto-phosphorylation, which provides a cellular readout of kinase activity, was first analyzed. […] Due to technical limitations, tyrosine phosphorylation of other JAK family members was not detected in U266 cells. […]

[3] = system: K562 and AML2 cells; assay: Annexin V/PI and cell cycle analysis, K562 and AML2; format: cell-based; settings: K562 20 μM, AML2 15 μM, 48 hours
Procedure: Annexin V/PI staining was performed using Annexin V:FITC Apoptosis Detection Kit I (BD Biosciences). Staining for cell cycle analysis was performed as previously described (267). Staining for cell-surface receptors was performed in 50 μl PBS+2% FBS with 2 μl antibody to IL6R (BioLegend #352803) or 5 μl antibody to gp130 (BD Biosciences #555757) for 20 minutes on ice in the dark. Cells were washed twice, then resuspended in 300 μl of the same buffer. Samples were analyzed on a BD FACSCanto II machine. Transfection and siRNA Cells were reverse-transfected using Lipofectamine RNAiMAX (Invitrogen); the culture medium was changed 24 hours later. Control siRNA (D-001210-02) and REDD1 siRNA (M-010855-01) were from Thermo Scientific Dharmacon.
K562 and AML2 cells treated with atovaquone (20 and 15 μM, respectively) for 48 hours. […] Therefore, it was hypothesized that atovaquone kills cancer cells through STAT3-related and STAT3-independent mechanisms. Accordingly, the hypothesis that atovaquone inhibited another common pathway in cancer pathogenesis was considered. In particular, the mTOR pathway, which is known to be involved in cancer cell growth and survival, was investigated.

For `O=C1C(O)=C([C@H]2CC[C@H](c3ccc(Cl)cc3)CC2)C(=O)c2ccccc21` [atovaquone, trans-2-[4-(4-chlorophenyl)cyclohexyl]-3-hydroxy-1,4-naphthalenedione], the “NF-κB transcription factor activity” value [1] was “modestly affected at the higher doses”, the “auto-phosphorylation of JAK family members in cells” value [2] was “inhibited the auto-phosphorylation of JAK family members” and the “mode of loss of viability” value [3] was “apoptosis and cell cycle arrest”.

Source: US10130590B2, “Methods of treating cancer with atovaquone-related compounds” (DANA-FARBER CANCER INSTITUTE, INC., priority 2013, dated 2018)
